Consider one compound from article doi:10.1101/2025.09.28.679030v1 (biorxiv, 2025).

One may read the Kd as the concentration at which binding is half-saturated. A lower Kd goes with tighter binding.

The target in this experiment is IGP1 (IGP1/CORK1) ectodomain (Arabidopsis thaliana, UniProt F4I3K3). Nature of the experiment: ITC. In kind it is binding. The conditions noted are these: purified ectodomain; ligand in LRR domain pocket, three subsites; N=1.

The structures appear in SMILES notation.

The compound `OC[C@H]1O[C@@H](O[C@H]2[C@H](O)[C@@H](O)[C@H](O[C@H]3[C@H](O)[C@@H](O)C(O)O[C@@H]3CO)O[C@@H]2CO)[C@H](O)[C@@H](O)[C@@H]1O` (stereo partly shown) [CEL3, cellotriose] displayed a Kd of about 1000 nM.
